Converted amounts (≈) assume the structure as drawn. Where a SMILES comes first, the peptide text is derived from it.
Experiments:
[1] = system: Actinobacillus actinomycetemcomitans ATCC 29523; format: cell-based
Procedure: (§1) Common oral pathogenic bacterial strains were selected for this study. Streptococcus mutans ATCC 35668, Streptococcus sobrinus ATCC 33478, Lactobacillus acidophilus ATCC 9224, Lactobacillus rhamnosus ATCC10863, Actinomyces naeslundii ATCC 12104, Enterococcus faecalis ATCC 29212, Porphyromonas gingivalis ATCC 33277, and Actinobacillus actinomycetemcomitans ATCC 29523. All the strains were cultured anaerobically.
(§2) Brain heart infusion (BHI) medium was used for culture of S. mutans, S. sobrinus, L. acidophilus, L. rhamnosus, A. naeslundii, E. faecalis, and A. actinomycetemcomitans, whereas p.g. broth was used for culture of Porphyromonas gingivalis. The standard dilution method in a 96-well microplate was conducted in order to evaluate the antimicrobial efficacy of GAPI. Each well was filled with […] GAPI dilutions. In addition, serial twofold dilutions in concentrations ranging from 1280 μM to 1.25 μM were prepared. A 10 μL bacterial culture (10^6 CFU/mL) was added. Chlorhexidine was used as positive control, and medium was used as negative control. The plates were then anaerobically incubated at 37° C. for 24 h. The absorbance was measured at a wavelength of 660 nm in order to analyze the growth of microorganisms. […] The MBC endpoint was the lowest concentration at which 99.9% of the bacterial population was killed, which thus means the absence of bacteria. The morphology of the bacteria and fungi treated with synthesized peptides was analysed using transmission electron microscopy (TEM) (Philips CM100, Philips/FEI Corporation, Eindhoven, Holland). The sample was prepared following a previous study (Niu et al. 2021d). Copper grids were used to contain the semi-thin sections of bacteria/fungi for examination.

[2] = system: Actinomyces naeslundii ATCC 12104; format: cell-based
Procedure: as §1, §2

[3] = system: Enterococcus faecalis ATCC 29212; format: cell-based
Procedure: as §1, §2

[4] = system: Lactobacillus acidophilus ATCC 9224; format: cell-based
Procedure: as §1, §2

[5] = system: Lactobacillus rhamnosus ATCC10863; format: cell-based
Procedure: as §1, §2

[6] = system: Porphyromonas gingivalis ATCC 33277; format: cell-based
Procedure: as §1, §2

[7] = system: Streptococcus mutans ATCC 35668; format: cell-based
Procedure: as §1, §2

[8] = system: Streptococcus sobrinus ATCC 33478; format: cell-based
Procedure: as §1, §2

[9] = Stability in human saliva (HPLC); format: in vitro ADME
Procedure: The stability of peptides in human saliva was investigated by testing the remaining peptide concentration via HPLC system (Waters Pacific Pte Ltd, Singapore). The saliva with peptides was mixed and incubated for 0, 15, 30, 45 and 60 min. The test was processed following a previous experimental protocol (Huang et al. 2016).

[10] = system: S. mutans biofilm (ATCC 35668) on dentine blocks; experiment: Antibiofilm effect on dentine, biofilm remineralization cycling model (CLSM, CFU); format: cell-based, Streptococcus mutans; conditions: 160 μM GAPI, 7 days cycling, n = 8
From the text: Dentine slices, 2 mm thick, were cut from sound extracted third molars. Ultra-fine 4000-grit sandpaper was used to polish these slices. Slices with defects were eliminated based on a stereomicroscope observation. A total of forty dentine slices were selected. Each slice was separated into two blocks and assigned to two groups. Nail varnish was used to coat half of the blocks as an internal control. S. mutans American Type Culture Collection 35668 was utilized in the present study. All the dentine blocks were placed into S. mutans culture (10^8 cells/mL) in a brain-heart infusion (BHI) broth containing 5% glucose to generate artificial caries. After a 3-day anaerobic culture at 37° C., the depth of the caries lesion surface was around 96 μm, which was observed using micro-computed tomography (micro-CT). […]
CLSM (Fluoview FV 1000, Olympus, Tokyo, Japan) was utilized to capture images to assess the S. mutans biofilm viability (n=8 for each group). […] The red-green ratio represented the dead-live ratio calculated using Image J version 1.53 t (National Institute of Health, Bethesda, MD, USA).
To determine the S. mutans biofilm growth kinetics, the colony-forming units (CFUs) were counted (n=8 for each group). […] All the plates were cultured anaerobically for 48 h at 37° C. before the CFUs were counted. The log CFU was calculated for a statistical analysis.

Work on CC(C)[C@@H]1NC(=O)[C@H](CCCN=C(N)N)NC(=O)[C@H](Cc2ccccc2)NC(=O)[C@@H](NC(=O)[C@H](Cc2c[nH]c3ccccc23)NC(=O)[C@H](CCCN=C(N)N)NC(=O)[C@H](CCCN=C(N)N)NC(=O)c2cc(O)c(O)c(O)c2)CSSC[C@@H](C(=O)N[C@@H](CCCN=C(N)N)C(=O)O)NC(=O)[C@H](CCCCN)NC(=O)[C@H](CCCN=C(N)N)NC(=O)[C@H](Cc2ccc(O)cc2)NC(=O)[C@@H]2CSSC[C@H](NC1=O)C(=O)N[C@@H](Cc1ccc(O)cc1)C(=O)N[C@@H](CCCN=C(N)N)C(=O)NCC(=O)N[C@@H](Cc1ccccc1)C(=O)N2 [GAPI, Gallic-Acid-Polyphemusin-I] (HELM PEPTIDE1{[O=C(c1cc(O)c(O)c(O)c1)[*:2]].R.R.W.C.F.R.V.C.Y.R.G.F.C.Y.R.K.C.R}$PEPTIDE1,PEPTIDE1,5:R3-18:R3|PEPTIDE1,PEPTIDE1,9:R3-14:R3$$$V2.0) yielded an MBC ([1]; ATCC 29523) of 320 µM (≈ 834 µg/mL), an MIC ([1]; ATCC 29523, anaerobic, 24 h) of 160 µM (≈ 417 µg/mL) and an MBC ([2]; ATCC 12104) of 640 µM (≈ 1670 µg/mL). For the same compound, the MIC ([2]; ATCC 12104, anaerobic, 24 h) was 160 µM (≈ 417 µg/mL), the MBC ([3]; ATCC 29212) was 640 µM (≈ 1670 µg/mL) and the MIC ([3]; ATCC 29212, anaerobic, 24 h) was 160 µM (≈ 417 µg/mL). The MBC ([4]; ATCC 9224) was 80 µM (≈ 209 µg/mL), the MIC ([4]; ATCC 9224, anaerobic, 24 h) was 40 µM (≈ 104 µg/mL) and the MBC ([5]; ATCC 10863) was 160 µM (≈ 417 µg/mL). The MIC ([5]; ATCC 10863, anaerobic, 24 h) was 20 µM (≈ 52.1 µg/mL), the MBC ([6]; ATCC 33277) was 640 µM (≈ 1670 µg/mL) and the MIC ([6]; ATCC 33277, anaerobic, 24 h) was 320 µM (≈ 834 µg/mL). The MBC ([7]; ATCC 35668) was 160 µM (≈ 417 µg/mL), the MIC ([7]; ATCC 35668, anaerobic, 24 h) was 80 µM (≈ 209 µg/mL) and the MBC ([8]; ATCC 33478) was 320 µM (≈ 834 µg/mL). The MIC ([8]; ATCC 33478, anaerobic, 24 h) was 80 µM (≈ 209 µg/mL), the “stable in saliva (time)” value [9] was “at least 60 min” and the remaining at 0.25 h ([9]; human, 15 min, read-out: remaining percentage after incubation in human saliva) was 98.9%. The remaining at 0.5 h ([9]; human, 30 min, read-out: remaining percentage after incubation in human saliva) was 98.6%, the remaining at 0.75 h ([9]; human, 45 min, read-out: remaining percentage after incubation in human saliva) was 96.8% and the remaining at 1 h ([9]; human, 60 min, read-out: remaining percentage after incubation in human saliva) was 94.4%. The “Viability: Dead-to-live ratio” value ([10]; CLSM) was 0.77±0.13 and the “Kinectics: Log10 CFU” value [10] was 7.45±0.32.

Reference: US20250090441A1, “ANTI-CARIES PEPTIDES WITH ANTIMICROBIAL AND REMINERALIZING PROPERTIES AND METHODS THEREOF” (THE UNIVERSITY OF HONG KONG, priority 2023, published 2025)
